Measured values published in PMC12692861, “Biotin-Linked Ursolic Acid Conjugates as Selective Anticancer Agents and Target-Identification Tools for Cancer Therapy” (Molecules, 2025).

Experiments:
[1] = target: Poly(U)-binding-splicing factor 60 (PUF60) (Mus musculus, UniProt Q3UEB3); assay: Streptavidin pulldown proteomics (LC-MS/MS), MB49 cells; parameters: species or system murine; settings: MB-49, 50 µM
Method: (§1) We used proteomics to identify potential molecular targets of 5c. A pulldown assay with streptavidin-agarose-coated magnetic beads was performed. Briefly, 5637 and MB49 cells were incubated with 50 µM 5c for 10 min and 1 h. After incubation, the cells were rinsed three times with cold phosphate-buffered saline (PBS), and cell lysates were prepared and clarified by centrifugation to remove cellular debris, including nuclei. The clarified lysates were incubated with streptavidin-coated magnetic beads to selectively bind biotinylated contents. Bound proteins were separated from unbound proteins through thorough bead washing. Proteins attached to the beads were eluted and analyzed on an Orbitrap Fusion Tribrid mass spectrometer (Thermo Scientific, New York, NY, USA) coupled with an Ultimate 3000 nano-UPLC system. Samples were trapped on a PepMap100 C18 trap column (5 µm, 0.3 × 5 mm) and separated on a PepMap RSLC C18 column (2 µm, 75 µm × 150 mm) using a gradient from 2 to 40% acetonitrile with 0.1% formic acid over 120 min at […] and 40 °C. MS data were acquired in positive mode using data-dependent acquisition (DDA), with precursor scans at 120,000 FWHM (400–2000 m/z), and MS/MS scans in top-speed mode (3 s cycle) using HCD fragmentation (NCE 32%). Proteins were identified and quantified based on peptide spectral matches (PSMs), and fold enrichment compared to controls was calculated to evaluate interaction strength.
(§2) The 5637 and MB49 cells were cultured and treated with higher concentrations of 5c (50 µM) for short period of times (10 min & 60 min) followed by whole cell lysis (WCL) preparation of both treated and untreated cells using modified RIPA buffer [NaCl (100mM), TrisCl (20mM, pH 7.4), EDTA (10 mM), TritonX-100 (0.5%), Glycerol (5%), Protease inhibitor cocktail (1x)] with gentle continuous rotation. The protein content of each WCL was estimated using Pierce™ BCA Protein Assay kit (Thermo-Scientific # 23225). The 100 µL of resuspended Dynabeads™ MyOne™ Streptavidin C1 (Invitrogen # 65001) were washed with PBST (PBS with 0.01% Tween™20) in a magnet stand as recommended in the manufacturer’s instructions. The washed beads were incubated with 200 µg of each WCL in separate tubes at room temperature for 2 h in a gentle end-over-end mixing. After incubation, beads were washed 3–5 times with PBST (0.01% Tween-20) on a magnetic stand and beads were decanted by after spinning and magnetization. The samples were stored at −80 °C till further analysis using LC-MS/MS by the Proteomics and Mass Spectrometry Core Laboratory of Augusta University.

[2] = test system: RNA-binding protein 39 (RBM39); assay: as above; parameters: species or system murine; settings: MB-49, 50 µM
Method: as §1, §2

[3] = test system: ATP-binding cassette sub-family A; assay: as above; parameters: species or system murine; settings: MB-49, 50 µM
Method: as §1, §2

[4] = target: RNA-binding protein 39 (RBM39) (Homo sapiens, UniProt Q14498); assay: Streptavidin pulldown proteomics (LC-MS/MS), 5637 cells; settings: 5637, 50 µM
Method: as §1, §2

[5] = target: Poly(U)-binding-splicing factor 60 (PUF60) (Homo sapiens, UniProt Q9UHX1); assay: as above; settings: 5637, 50 µM
Poly(U)-binding-splicing factor 60 (PUF60) (Homo sapiens, UniProt Q9UHX1), sequence (Q9UHX1 whole entry): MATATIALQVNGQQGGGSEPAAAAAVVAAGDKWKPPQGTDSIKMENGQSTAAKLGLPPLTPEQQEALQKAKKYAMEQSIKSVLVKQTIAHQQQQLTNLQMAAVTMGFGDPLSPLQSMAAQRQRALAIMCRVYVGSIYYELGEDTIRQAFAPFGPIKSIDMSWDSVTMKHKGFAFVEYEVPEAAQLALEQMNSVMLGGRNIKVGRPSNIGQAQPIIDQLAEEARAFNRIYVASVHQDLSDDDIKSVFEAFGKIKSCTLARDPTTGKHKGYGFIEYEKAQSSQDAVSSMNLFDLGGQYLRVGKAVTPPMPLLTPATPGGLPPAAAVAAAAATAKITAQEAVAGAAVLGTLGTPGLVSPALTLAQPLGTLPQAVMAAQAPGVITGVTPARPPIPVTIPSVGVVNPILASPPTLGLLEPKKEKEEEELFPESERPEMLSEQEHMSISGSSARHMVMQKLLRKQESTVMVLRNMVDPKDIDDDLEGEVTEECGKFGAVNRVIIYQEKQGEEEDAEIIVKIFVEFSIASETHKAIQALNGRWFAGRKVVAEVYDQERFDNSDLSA
Method: as §1, §2

[6] = target: Rab-like protein 6 (RABL6) (Homo sapiens, UniProt Q3YEC7); assay: as above; type: binding; settings: 5637, 50 µM
Rab-like protein 6 (RABL6) (Homo sapiens, UniProt Q3YEC7), sequence (Q3YEC7 whole entry): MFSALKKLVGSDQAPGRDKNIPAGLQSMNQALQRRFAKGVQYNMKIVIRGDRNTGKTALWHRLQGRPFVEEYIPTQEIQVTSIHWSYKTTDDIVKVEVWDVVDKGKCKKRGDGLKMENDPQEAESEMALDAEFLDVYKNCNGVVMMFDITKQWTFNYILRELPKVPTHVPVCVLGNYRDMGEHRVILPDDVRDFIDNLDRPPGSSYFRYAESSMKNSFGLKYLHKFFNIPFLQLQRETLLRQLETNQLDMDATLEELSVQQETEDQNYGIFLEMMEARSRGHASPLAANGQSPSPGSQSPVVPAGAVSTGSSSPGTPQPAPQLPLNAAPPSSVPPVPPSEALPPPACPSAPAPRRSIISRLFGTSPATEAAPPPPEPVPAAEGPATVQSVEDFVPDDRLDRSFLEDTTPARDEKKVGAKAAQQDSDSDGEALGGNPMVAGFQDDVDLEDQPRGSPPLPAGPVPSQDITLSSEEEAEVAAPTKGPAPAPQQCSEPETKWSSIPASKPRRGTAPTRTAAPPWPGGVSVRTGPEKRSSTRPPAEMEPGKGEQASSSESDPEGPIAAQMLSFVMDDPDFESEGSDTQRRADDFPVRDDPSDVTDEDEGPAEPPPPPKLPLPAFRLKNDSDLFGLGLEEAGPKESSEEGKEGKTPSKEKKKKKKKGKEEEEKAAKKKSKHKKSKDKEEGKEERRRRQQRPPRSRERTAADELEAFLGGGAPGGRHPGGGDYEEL
Method: as §1, §2

[7] = target: T-complex protein 1 subunit theta (Mus musculus, UniProt P42932); assay: Streptavidin pulldown proteomics (LC-MS/MS), MB49 cells; type: binding, murine; settings: MB-49, 50 µM
Method: as §1, §2

[8] = target: Receptor of activated protein C kinase 1 (RACK1) (Mus musculus, UniProt P68040); assay: as above; type: binding, murine; settings: MB-49, 50 µM
Method: as §1, §2

[9] = target: Heterogeneous nuclear ribonucleoprotein U (HNRNPU) (Mus musculus, UniProt Q8VEK3); assay: as above; type: binding, murine; settings: MB-49, 50 µM
Method: as §1, §2

[10] = test system: Eukaryotic initiation factor 4A (eIF4A); assay: as above; type: binding, murine; settings: MB-49, 50 µM
Method: as §1, §2

[11] = target: HSP 90-beta (HSP90β) (Mus musculus, UniProt P11499); assay: as above; type: binding, murine; settings: MB-49, 50 µM
Method: as §1, §2

[12] = target: HSC 71 (Mus musculus, UniProt P63017); assay: as above; type: binding, murine; settings: MB-49, 50 µM
HSC 71, sequence (P63017 whole entry): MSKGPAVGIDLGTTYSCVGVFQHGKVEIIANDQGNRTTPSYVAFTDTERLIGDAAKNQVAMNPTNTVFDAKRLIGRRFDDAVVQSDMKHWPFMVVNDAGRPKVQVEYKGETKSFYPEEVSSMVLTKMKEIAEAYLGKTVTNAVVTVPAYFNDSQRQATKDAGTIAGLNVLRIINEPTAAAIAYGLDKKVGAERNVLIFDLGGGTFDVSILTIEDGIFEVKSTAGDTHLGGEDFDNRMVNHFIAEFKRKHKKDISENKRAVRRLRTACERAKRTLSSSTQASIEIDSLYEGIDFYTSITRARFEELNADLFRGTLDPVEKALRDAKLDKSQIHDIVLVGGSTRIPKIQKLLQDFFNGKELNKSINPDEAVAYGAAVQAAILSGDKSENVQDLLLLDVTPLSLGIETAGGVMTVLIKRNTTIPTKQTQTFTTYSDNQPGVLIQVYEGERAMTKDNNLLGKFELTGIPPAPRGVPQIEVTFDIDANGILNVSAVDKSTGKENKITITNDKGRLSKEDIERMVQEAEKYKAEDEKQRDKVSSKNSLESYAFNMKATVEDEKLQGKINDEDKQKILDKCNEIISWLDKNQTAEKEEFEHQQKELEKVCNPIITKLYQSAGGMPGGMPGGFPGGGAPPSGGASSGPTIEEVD
Method: as §1, §2

[13] = target: Histone H2B type 1-M (Mus musculus, UniProt P10854); assay: as above; type: binding, murine; settings: MB-49, 50 µM
Method: as §1, §2

[14] = target: HSP 90-alpha (HSP90α) (Mus musculus, UniProt P07901); assay: as above; type: binding, murine; settings: MB-49, 50 µM
Method: as §1, §2

[15] = test system: Eukaryotic translation initiation factor 2 (eIF2); assay: as above; type: binding, murine; settings: MB-49, 50 µM
Method: as §1, §2

[16] = target: Elongation factor 1-delta (EF1δ) (Mus musculus, UniProt P57776); assay: as above; type: binding, murine; settings: MB-49, 50 µM
Elongation factor 1-delta (EF1δ), sequence (P57776 whole entry): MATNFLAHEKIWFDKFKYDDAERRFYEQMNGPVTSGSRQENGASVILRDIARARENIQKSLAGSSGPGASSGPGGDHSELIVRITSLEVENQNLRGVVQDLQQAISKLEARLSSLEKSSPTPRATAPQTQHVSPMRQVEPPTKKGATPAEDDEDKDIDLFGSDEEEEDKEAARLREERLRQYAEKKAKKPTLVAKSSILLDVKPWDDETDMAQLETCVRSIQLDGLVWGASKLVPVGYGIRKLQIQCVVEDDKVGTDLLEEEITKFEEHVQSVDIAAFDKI
Method: as §1, §2

[17] = target: Histone H4 (Mus musculus, UniProt P62806); assay: as above; type: binding, murine; settings: MB-49, 50 µM
Method: as §1, §2

[18] = target: ATP synthase subunit alpha (Mus musculus, UniProt Q03265); assay: as above; type: binding, murine; settings: MB-49, 50 µM
ATP synthase subunit alpha, sequence (Q03265 44-553): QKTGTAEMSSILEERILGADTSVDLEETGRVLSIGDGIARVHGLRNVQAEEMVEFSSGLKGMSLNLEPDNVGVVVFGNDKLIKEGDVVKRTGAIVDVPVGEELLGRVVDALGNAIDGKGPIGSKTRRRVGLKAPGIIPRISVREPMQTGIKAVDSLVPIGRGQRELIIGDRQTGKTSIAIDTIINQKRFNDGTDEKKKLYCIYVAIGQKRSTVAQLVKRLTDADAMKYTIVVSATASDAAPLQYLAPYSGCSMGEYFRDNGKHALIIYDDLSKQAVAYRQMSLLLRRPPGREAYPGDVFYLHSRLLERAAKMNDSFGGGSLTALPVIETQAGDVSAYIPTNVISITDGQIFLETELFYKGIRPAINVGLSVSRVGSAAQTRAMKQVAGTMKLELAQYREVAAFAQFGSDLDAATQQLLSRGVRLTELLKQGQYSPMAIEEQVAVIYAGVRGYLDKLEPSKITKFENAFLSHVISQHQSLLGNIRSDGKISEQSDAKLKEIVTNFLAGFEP
ATP synthase subunit alpha, sequence (P56480 47-529 partner): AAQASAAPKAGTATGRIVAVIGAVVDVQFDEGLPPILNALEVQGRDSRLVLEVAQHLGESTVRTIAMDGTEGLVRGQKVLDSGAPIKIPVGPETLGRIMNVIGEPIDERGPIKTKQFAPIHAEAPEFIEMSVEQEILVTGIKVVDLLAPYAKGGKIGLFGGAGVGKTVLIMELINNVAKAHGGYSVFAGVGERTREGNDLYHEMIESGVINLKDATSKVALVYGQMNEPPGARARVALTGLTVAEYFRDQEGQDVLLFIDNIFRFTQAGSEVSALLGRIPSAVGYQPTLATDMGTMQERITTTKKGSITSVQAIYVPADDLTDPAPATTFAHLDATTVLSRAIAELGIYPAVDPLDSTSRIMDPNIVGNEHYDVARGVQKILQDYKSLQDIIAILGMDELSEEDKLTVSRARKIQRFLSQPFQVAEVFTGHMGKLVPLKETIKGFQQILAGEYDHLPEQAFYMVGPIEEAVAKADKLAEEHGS
ATP synthase subunit alpha, sequence (Q91VR2 26-298 partner): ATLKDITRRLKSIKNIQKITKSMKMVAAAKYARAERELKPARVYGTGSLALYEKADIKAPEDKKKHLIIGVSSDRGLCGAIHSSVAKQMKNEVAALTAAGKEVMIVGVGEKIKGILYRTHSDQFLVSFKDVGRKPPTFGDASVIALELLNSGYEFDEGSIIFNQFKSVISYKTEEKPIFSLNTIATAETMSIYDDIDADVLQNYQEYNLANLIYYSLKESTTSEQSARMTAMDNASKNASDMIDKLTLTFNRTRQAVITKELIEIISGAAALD
Method: as §1, §2

[19] = target: Histone H2A.Z (Mus musculus, UniProt P0C0S6); assay: as above; type: binding, murine; settings: MB-49, 50 µM
Histone H2A.Z, sequence (P0C0S6 whole entry): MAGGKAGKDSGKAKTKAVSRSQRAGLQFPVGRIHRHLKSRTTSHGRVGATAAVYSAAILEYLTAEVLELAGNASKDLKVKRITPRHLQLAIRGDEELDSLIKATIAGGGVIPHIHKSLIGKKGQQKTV
Method: as §1, §2

[20] = target: Rab-like protein 6 (RABL6) (Mus musculus, UniProt Q5U3K5); assay: as above; type: binding, murine; settings: MB-49, 50 µM
Rab-like protein 6 (RABL6) (Mus musculus, UniProt Q5U3K5), sequence (Q5U3K5 whole entry): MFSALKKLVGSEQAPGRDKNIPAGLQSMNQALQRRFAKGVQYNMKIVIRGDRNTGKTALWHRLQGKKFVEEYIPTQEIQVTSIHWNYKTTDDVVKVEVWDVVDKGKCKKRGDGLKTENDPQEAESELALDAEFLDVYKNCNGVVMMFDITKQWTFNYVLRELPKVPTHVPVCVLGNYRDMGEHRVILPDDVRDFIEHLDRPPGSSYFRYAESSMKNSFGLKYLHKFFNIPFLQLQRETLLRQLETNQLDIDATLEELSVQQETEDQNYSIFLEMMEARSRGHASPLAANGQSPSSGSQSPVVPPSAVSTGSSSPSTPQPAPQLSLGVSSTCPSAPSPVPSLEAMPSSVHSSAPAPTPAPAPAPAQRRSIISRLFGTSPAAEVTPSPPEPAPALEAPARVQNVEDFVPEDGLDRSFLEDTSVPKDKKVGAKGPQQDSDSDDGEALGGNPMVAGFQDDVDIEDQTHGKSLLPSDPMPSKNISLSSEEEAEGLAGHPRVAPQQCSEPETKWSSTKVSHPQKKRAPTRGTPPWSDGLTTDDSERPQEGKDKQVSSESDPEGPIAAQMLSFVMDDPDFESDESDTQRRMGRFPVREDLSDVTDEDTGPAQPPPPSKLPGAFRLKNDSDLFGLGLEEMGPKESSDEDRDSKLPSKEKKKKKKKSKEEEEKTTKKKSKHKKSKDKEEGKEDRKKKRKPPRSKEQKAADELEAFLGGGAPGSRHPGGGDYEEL
Method: as §1, §2

[21] = target: Filamin-A (FLNA) (Mus musculus, UniProt Q8BTM8); assay: as above; type: binding, murine; settings: MB-49, 50 µM
Method: as §1, §2

Poly(U)-binding-splicing factor 60 (PUF60) (Mus musculus, UniProt Q3UEB3), sequence (Q3UEB3 whole entry): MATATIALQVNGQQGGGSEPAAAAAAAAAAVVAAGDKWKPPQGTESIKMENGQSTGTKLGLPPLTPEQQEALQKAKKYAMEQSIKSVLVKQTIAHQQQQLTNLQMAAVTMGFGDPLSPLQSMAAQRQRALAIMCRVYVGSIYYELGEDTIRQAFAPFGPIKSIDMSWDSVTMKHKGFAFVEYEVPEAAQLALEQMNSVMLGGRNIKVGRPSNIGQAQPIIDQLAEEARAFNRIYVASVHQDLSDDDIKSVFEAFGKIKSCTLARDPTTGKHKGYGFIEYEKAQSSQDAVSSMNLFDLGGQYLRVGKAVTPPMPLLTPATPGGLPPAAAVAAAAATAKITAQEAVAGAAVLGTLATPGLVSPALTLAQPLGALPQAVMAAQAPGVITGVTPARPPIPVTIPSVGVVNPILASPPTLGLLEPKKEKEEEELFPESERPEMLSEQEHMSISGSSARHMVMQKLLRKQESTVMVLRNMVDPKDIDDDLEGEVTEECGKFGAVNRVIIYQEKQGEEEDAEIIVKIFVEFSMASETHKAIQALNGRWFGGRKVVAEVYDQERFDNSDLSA

CC1CCC2(C(=O)OCCCCOC(=O)CCCCC3SCC4NC(=O)NC43)CCC3(C)C(=CCC4C5(C)CCC(O)C(C)(C)C5CCC43C)C2C1C [Compound 5c, 4-((5-((3aS,4S,6aR)-2-Oxohexahydro-1H-thieno [3,4-d]imidazol-4-yl)pentanoyl)oxy) butyl 3-hydroxy-urs-12-en-28-oate]
Fold Change 10 min/Ctrl [1]: 2.33
Fold Change 1 h/Ctrl [1]: 3.33
Fold Change 10 min/Ctrl [2]: 2
Fold Change 1 h/Ctrl [2]: 1.71
Fold Change 10 min/Ctrl [3]: 1
Fold Change 1 h/Ctrl [3]: 2
Fold Change 10 min/Ctrl [4]: 3.5
Fold Change 1 h/Ctrl [4]: 3
Fold Change 10 min/Ctrl [5]: 6
Fold Change 1 h/Ctrl [5]: 5
Fold Change 10 min/Ctrl [6]: 1.33
Fold Change 1 h/Ctrl [6]: 2.67
Fold Change 10 min/Ctrl [7]: 2
Fold Change 1 h/Ctrl [7]: 3
Fold Change 10 min/Ctrl [8]: 0.88
Fold Change 1 h/Ctrl [8]: 1.29
Fold Change 10 min/Ctrl [9]: 2.38
Fold Change 1 h/Ctrl [9]: 2.13
Fold Change 10 min/Ctrl [10]: 1
Fold Change 1 h/Ctrl [10]: 3
Fold Change 10 min/Ctrl [11]: 1.40
Fold Change 1 h/Ctrl [11]: 1.71
Fold Change 10 min/Ctrl [12]: 1.5
Fold Change 1 h/Ctrl [12]: 2
Fold Change 10 min/Ctrl [13]: 2.04
Fold Change 1 h/Ctrl [13]: 1.81
Fold Change 10 min/Ctrl [14]: 1.07
Fold Change 1 h/Ctrl [14]: 1.25
Fold Change 10 min/Ctrl [15]: 2
Fold Change 1 h/Ctrl [15]: 0
Fold Change 10 min/Ctrl [16]: 1.4
Fold Change 1 h/Ctrl [16]: 2
Fold Change 10 min/Ctrl [17]: 1.64
Fold Change 1 h/Ctrl [17]: 1.18
Fold Change 10 min/Ctrl [18]: 1.26
Fold Change 1 h/Ctrl [18]: 1.26
Fold Change 10 min/Ctrl [19]: 1.86
Fold Change 1 h/Ctrl [19]: 1.20
Fold Change 10 min/Ctrl [20]: 3
Fold Change 1 h/Ctrl [20]: 5.5
Fold Change 10 min/Ctrl [21]: 3.33
Fold Change 1 h/Ctrl [21]: 4
